Measured values from PubChem BioAssay AID2060907 (Molecular Pharmacology Branch, DTP, NCI, 2025).

Test system: 388556-164-R-J1-PDC complex spheroid viability
Experiment: Anticancer human tumor 388556-164-R-J1-PDC patient-derived colon adenocarcinoma cell line growth inhibition [RAS]
Settings: for IC50: curve of first compound; for viability, T/C: stronger effect = lower value
Summary of the method: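 Tumour cells grown as complex spheroids with HUVEC endothelial cells and mesenchymal stem cells, treated with RAS pathway inhibitor combinations. Each agent spans half-log steps from near clinical Cmax, or 10 microM where Cmax is unknown.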

[1] = second compound 0.000949 µM, first compound 0.00316 µM
[2] = second compound 0.000949 µM, first compound 0.01 µM
[3] = second compound 0.000949 µM, first compound 0.0316 µM
[4] = second compound 0.000949 µM, first compound 0.1 µM
[5] = second compound 0.000949 µM, first compound 0.316 µM
[6] = second compound 0.000949 µM, first compound 1 µM
[7] = second compound 0.003 µM, first compound 0.00316 µM
[8] = second compound 0.003 µM, first compound 0.01 µM
[9] = second compound 0.003 µM, first compound 0.0316 µM
[10] = second compound 0.003 µM, first compound 0.1 µM
[11] = second compound 0.003 µM, first compound 0.316 µM
[12] = second compound 0.003 µM, first compound 1 µM
[13] = second compound 0.00949 µM, first compound 0.00316 µM
[14] = second compound 0.00949 µM, first compound 0.01 µM
[15] = second compound 0.00949 µM, first compound 0.0316 µM
[16] = second compound 0.00949 µM, first compound 0.1 µM
[17] = second compound 0.00949 µM, first compound 0.316 µM
[18] = second compound 0.00949 µM, first compound 1 µM
[19] = second compound 0.03 µM, first compound 0.00316 µM
[20] = second compound 0.03 µM, first compound 0.01 µM
[21] = second compound 0.03 µM, first compound 0.0316 µM
[22] = second compound 0.03 µM, first compound 0.1 µM
[23] = second compound 0.03 µM, first compound 0.316 µM
[24] = second compound 0.03 µM, first compound 1 µM
[25] = second compound 0.0949 µM, first compound 0.00316 µM
[26] = second compound 0.0949 µM, first compound 0.01 µM
[27] = second compound 0.0949 µM, first compound 0.0316 µM
[28] = second compound 0.0949 µM, first compound 0.1 µM
[29] = second compound 0.0949 µM, first compound 0.316 µM
[30] = second compound 0.0949 µM, first compound 1 µM
[31] = second compound 0.3 µM, first compound 0.00316 µM
[32] = second compound 0.3 µM, first compound 0.01 µM
[33] = second compound 0.3 µM, first compound 0.0316 µM
[34] = second compound 0.3 µM, first compound 0.1 µM
[35] = second compound 0.3 µM, first compound 0.316 µM
[36] = second compound 0.3 µM, first compound 1 µM
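Note: spheroids exposed to compound for 7 days before readout.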
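Throughout, for viability, T/C: 100% = DMSO vehicle control luminescence.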

Q: What does the source list for `CC1(C)CCC(Nc2ncc(C(F)(F)F)c(-c3c[nH]c4c(P(C)(C)=O)c(C#N)ccc34)n2)CN1` (stereo unspecified) + C=CC(=O)N1CCN(c2nc(OCC3CCCN3C)nc3c(F)c(-c4nc(N)cc(C)c4C(F)(F)F)c(Cl)cc23)C(C)C1?
A: IC50 (second compound 0.00316 µM): > 300 nM; IC50 (second compound 0.01 µM): > 300 nM; IC50 (second compound 0.0316 µM): > 300 nM; IC50 (second compound 0.1 µM): > 300 nM; IC50 (second compound 0.316 µM): > 300 nM; IC50 (second compound 1 µM): > 300 nM; viability, T/C (second compound 0.00316 µM, first compound 0.000949 µM): 102%; viability, T/C (second compound 0.00316 µM, first compound 0.003 µM): 101%; viability, T/C (second compound 0.00316 µM, first compound 0.00949 µM): 97%; viability, T/C (second compound 0.00316 µM, first compound 0.03 µM): 85%; viability, T/C (second compound 0.00316 µM, first compound 0.0949 µM): 95.5%; viability, T/C (second compound 0.00316 µM, first compound 0.3 µM): 88.1%; viability, T/C (second compound 0.01 µM, first compound 0.000949 µM): 101%; viability, T/C (second compound 0.01 µM, first compound 0.003 µM): 95.7%; viability, T/C (second compound 0.01 µM, first compound 0.00949 µM): 93.7%; viability, T/C (second compound 0.01 µM, first compound 0.03 µM): 99.7%; viability, T/C (second compound 0.01 µM, first compound 0.0949 µM): 89.2%; viability, T/C (second compound 0.01 µM, first compound 0.3 µM): 87.5%; viability, T/C (second compound 0.0316 µM, first compound 0.000949 µM): 102%; viability, T/C (second compound 0.0316 µM, first compound 0.003 µM): 100%; viability, T/C (second compound 0.0316 µM, first compound 0.00949 µM): 89.8%; viability, T/C (second compound 0.0316 µM, first compound 0.03 µM): 103%; viability, T/C (second compound 0.0316 µM, first compound 0.0949 µM): 97.8%; viability, T/C (second compound 0.0316 µM, first compound 0.3 µM): 96.2%; viability, T/C (second compound 0.1 µM, first compound 0.000949 µM): 98.4%; viability, T/C (second compound 0.1 µM, first compound 0.003 µM): 99.8%; viability, T/C (second compound 0.1 µM, first compound 0.00949 µM): 96.8%; viability, T/C (second compound 0.1 µM, first compound 0.03 µM): 84.7%; viability, T/C (second compound 0.1 µM, first compound 0.0949 µM): 99.6%; viability, T/C (second compound 0.1 µM, first compound 0.3 µM): 87.8%; viability, T/C (second compound 0.316 µM, first compound 0.000949 µM): 110%; viability, T/C (second compound 0.316 µM, first compound 0.003 µM): 97.6%; viability, T/C (second compound 0.316 µM, first compound 0.00949 µM): 102%; viability, T/C (second compound 0.316 µM, first compound 0.03 µM): 95.7%; viability, T/C (second compound 0.316 µM, first compound 0.0949 µM): 94.1%; viability, T/C (second compound 0.316 µM, first compound 0.3 µM): 92.4%; viability, T/C (second compound 1 µM, first compound 0.000949 µM): 91.1%; viability, T/C (second compound 1 µM, first compound 0.003 µM): 105%; viability, T/C (second compound 1 µM, first compound 0.00949 µM): 105%; viability, T/C (second compound 1 µM, first compound 0.03 µM): 104%; viability, T/C (second compound 1 µM, first compound 0.0949 µM): 94.9%; viability, T/C (second compound 1 µM, first compound 0.3 µM): 85%

Q: What does the source list for `C=CC(=O)Nc1cc(Nc2nccc(-c3cn(C)c4ccccc34)n2)c(OC)cc1N(C)CCN(C)C` + CCn1c(-c2cc(N3CCN(C)CC3)cnc2C(C)OC)c2c3cc(ccc31)-c1csc(n1)CC(NC(=O)C1CC1C)C(=O)N1CCCC(N1)C(=O)OCC(C)(C)C2?
A: IC50 (second compound 0.000949 µM): 745 nM; IC50 (second compound 0.003 µM): 480 nM; IC50 (second compound 0.00949 µM): 416 nM; IC50 (second compound 0.03 µM): 41.8 nM; IC50 (second compound 0.0949 µM): < 3.16 nM; IC50 (second compound 0.3 µM): < 3.16 nM; viability, T/C [1]: 92.8%; viability, T/C [2]: 92.1%; viability, T/C [3]: 93.5%; viability, T/C [4]: 79.8%; viability, T/C [5]: 60.4%; viability, T/C [6]: 46.4%; viability, T/C [7]: 91.7%; viability, T/C [8]: 90.3%; viability, T/C [9]: 75.3%; viability, T/C [10]: 74%; viability, T/C [11]: 56.4%; viability, T/C [12]: 38.1%; viability, T/C [13]: 79.2%; viability, T/C [14]: 78.9%; viability, T/C [15]: 65.8%; viability, T/C [16]: 66.4%; viability, T/C [17]: 60.5%; viability, T/C [18]: 28.3%; viability, T/C [19]: 62.1%; viability, T/C [20]: 50.8%; viability, T/C [21]: 54.9%; viability, T/C [22]: 45.8%; viability, T/C [23]: 36.1%; viability, T/C [24]: 27.3%; viability, T/C [25]: 39.4%; viability, T/C [26]: 42.7%; viability, T/C [27]: 46.8%; viability, T/C [28]: 33.1%; viability, T/C [29]: 28.2%; viability, T/C [30]: 22.8%; viability, T/C [31]: 32.2%; viability, T/C [32]: 28.5%; viability, T/C [33]: 30.8%; viability, T/C [34]: 25.1%; viability, T/C [35]: 25.7%; viability, T/C [36]: 24%

Q: What does the source list for `O=C(c1ccc(F)c(F)c1Nc1ccc(I)cc1F)N1CC(O)([C@@H]2CCCCN2)C1` + CCn1c(-c2cc(N3CCN(C)CC3)cnc2C(C)OC)c2c3cc(ccc31)-c1csc(n1)CC(NC(=O)C1CC1C)C(=O)N1CCCC(N1)C(=O)OCC(C)(C)C2?
A: IC50 (second compound 0.000949 µM): 132 nM; IC50 (second compound 0.003 µM): 84.5 nM; IC50 (second compound 0.00949 µM): 36.1 nM; IC50 (second compound 0.03 µM): 8.39 nM; IC50 (second compound 0.0949 µM): < 3.16 nM; IC50 (second compound 0.3 µM): < 3.16 nM; viability, T/C [1]: 96%; viability, T/C [2]: 91%; viability, T/C [3]: 72.6%; viability, T/C [4]: 58.3%; viability, T/C [5]: 31.8%; viability, T/C [6]: 19.9%; viability, T/C [7]: 97.5%; viability, T/C [8]: 83.3%; viability, T/C [9]: 70.5%; viability, T/C [10]: 46%; viability, T/C [11]: 29.1%; viability, T/C [12]: 19.3%; viability, T/C [13]: 80.9%; viability, T/C [14]: 69.2%; viability, T/C [15]: 50.1%; viability, T/C [16]: 38%; viability, T/C [17]: 24.1%; viability, T/C [18]: 18.7%; viability, T/C [19]: 63.6%; viability, T/C [20]: 45.8%; viability, T/C [21]: 36.9%; viability, T/C [22]: 30.1%; viability, T/C [23]: 19.7%; viability, T/C [24]: 18.6%; viability, T/C [25]: 35%; viability, T/C [26]: 33.2%; viability, T/C [27]: 30.3%; viability, T/C [28]: 18.4%; viability, T/C [29]: 17.9%; viability, T/C [30]: 18.8%; viability, T/C [31]: 28.3%; viability, T/C [32]: 26.1%; viability, T/C [33]: 20.1%; viability, T/C [34]: 16.9%; viability, T/C [35]: 18.4%; viability, T/C [36]: 17%
